# Reference: patent publication US20120328588A1, “COMPOUND PREPARATION AND ITS USES FOR PREVENTION AND TREATMENT OF HEARING IMPAIRMENT” (The Second Military Medical University of Chinese PLA, priority 2010, published 2012)
# Assays:
# [1] = test system: guinea pigs exposed to noise; assay: Preventive effect on noise-induced hearing impairment: hearing threshold shift of guinea pigs, drug given two days before noise exposure; format: in vivo
# Method: Experiments with Hearing Threshold Shift Sixty-four guinea pigs with normal weight and pure white hair were randomly divided into control group, alpha-lipoic acid group, nimodipine group, and compound preparation group. The guinea pigs were exposed to an octave band of noise (OBN) centered at 4 kHz, 115 dB SPL, 4 h per day. Two days before noise exposure, animals in the study groups were administered with the corresponding drug dose as designed, and those in the control group were administered with normal saline (NS). Hearing threshold shift of the animals was determined at different intervals of noise exposure in different groups. The synergistic effect of alpha-lipoic acid and nimodipine on regulating hearing threshold shift was observed and analyzed using q test.
# (§1) Being less than 20 dB was considered as an effective value. The synergistic effect of alpha-lipoic acid and nimodipine was analyzed using q test. Pla=2/8 means that there were 8 guinea pigs in the alpha-lipoic acid group, within which 2 were effective, and the remaining 6 were invalid. The mean of the rest was analogous to Pla=2/8.
# [2] = test system: guinea pigs exposed to noise; assay: Therapeutic effect on noise-induced hearing impairment: hearing threshold shift of guinea pigs, drug given intravenously within 7 days after noise exposure; format: in vivo
# Method: Eighty guinea pigs with normal weight and pure white hair were randomly divided into control group, alpha-lipoic acid group, nimodipine group, and compound preparation group. The animals were exposed to an octave band of noise (OBN) centered at 4 kHz, 115 dB SPL, 4 h per day. Animals in the study groups were administered intravenously with the corresponding drug dose as designed, and those in the control group were administered with NS within 7 days after noise exposure. Hearing threshold shift of the animals was determined at different intervals of noise exposure in different groups. The synergistic effect of alpha-lipoic acid and nimodipine on regulating hearing threshold shift was observed and analyzed using q test.
# as §1, with “test. Pla=4/10” for “test. Pla=2/8”, “were 10” for “were 8”, “which 4” for “which 2”, “to Pla=4/10.” for “to Pla=2/8.”
smiles,measurement,setting,value
"O=C(O)CCCCC1CCSS1 (stereo not shown) [LA, 1-2 dithiolane-3-pentanoic acid]",Mean change in hearing threshold shift,"[1]; LA 80 mg/kg, at 1st after exposure",32.5 dB
same,Mean change in hearing threshold shift,"[1]; LA 80 mg/kg, at 7th day after exposure",20.5 dB
same,P (effective guinea pigs / guinea pigs in group),"[1]; LA 80 mg/kg, effective = mean hearing threshold shift less than 20 dB within 7 days of exposure to noise",Pla = 2/8
same,Mean change in hearing threshold shift,"[2]; LA 80 mg/kg intravenously, 2 weeks after exposure",20.5 dB
same,Mean change in hearing threshold shift,"[2]; LA 80 mg/kg intravenously, at 1st day after exposure",32.5 dB
same,P (effective guinea pigs / guinea pigs in group),"[2]; LA 80 mg/kg intravenously, effective = mean hearing threshold shift less than 20 dB within 7 days after noise exposure",Pla = 4/10
"COCCOC(=O)C1=C(C)NC(C)=C(C(=O)OC(C)C)C1c1cccc([N+](=O)[O-])c1 (stereo not shown) [NIM, Nimodipine]",Mean change in hearing threshold shift,"[1]; NIM 2 mg/kg, at 1st after exposure",41.0 dB
same,Mean change in hearing threshold shift,"[1]; NIM 2 mg/kg, at 7th day after exposure",23.5 dB
same,Mean change in hearing threshold shift,"[1]; NIM 4 mg/kg, at 1st after exposure",38.5 dB
same,Mean change in hearing threshold shift,"[1]; NIM 4 mg/kg, at 7th day after exposure",24 dB
same,Mean change in hearing threshold shift,"[1]; NIM 8 mg/kg, at 1st after exposure",38 dB
same,Mean change in hearing threshold shift,"[1]; NIM 8 mg/kg, at 7th day after exposure",22.0 dB
same,Mean change in hearing threshold shift,"[1]; NIM 16 mg/kg, at 1st after exposure",36 dB
same,Mean change in hearing threshold shift,"[1]; NIM 16 mg/kg, at 7th day after exposure",22.0 dB
same,Mean change in hearing threshold shift,"[2]; NIM 2 mg/kg intravenously, 2 weeks after exposure",23.5 dB
same,Mean change in hearing threshold shift,"[2]; NIM 2 mg/kg intravenously, at 1st day after exposure",41.0 dB
same,Mean change in hearing threshold shift,"[2]; NIM 4 mg/kg intravenously, 2 weeks after exposure",24 dB
same,Mean change in hearing threshold shift,"[2]; NIM 4 mg/kg intravenously, at 1st day after exposure",38.5 dB
same,Mean change in hearing threshold shift,"[2]; NIM 8 mg/kg intravenously, 2 weeks after exposure",22.0 dB
same,Mean change in hearing threshold shift,"[2]; NIM 8 mg/kg intravenously, at 1st day after exposure",38 dB
same,Mean change in hearing threshold shift,"[2]; NIM 16 mg/kg intravenously, 2 weeks after exposure",22.0 dB
same,Mean change in hearing threshold shift,"[2]; NIM 16 mg/kg intravenously, at 1st day after exposure",36 dB
